Test results reported in patent US10760052B2, “Method of inhibiting tau phosphorylation” (priority 2012, dated 2020).

Experiments:
[1] = tested on: α7nAChR (Aβ42 binding); experiment: FITC-Aβ42 binding to biotinylated α7nAChR-containing SK-N-MC cell fragments; set-up: species or system human; conditions: added simultaneously, 30° C., 30 minutes
[2] = molecular target: T1, FLNA (Homo sapiens, UniProt P21333); experiment: [3H]NLX competition binding to FLNA in SK-N-MC cell membranes; conditions: read-out: IC50-L, inhibition of [3H]NLX binding
T1 construct: validate the use of that 5-mer peptide as a surrogate for the complete molecule in the assays carried out herein; host or cells: A7 cells
T1 sequence (P21333 whole entry): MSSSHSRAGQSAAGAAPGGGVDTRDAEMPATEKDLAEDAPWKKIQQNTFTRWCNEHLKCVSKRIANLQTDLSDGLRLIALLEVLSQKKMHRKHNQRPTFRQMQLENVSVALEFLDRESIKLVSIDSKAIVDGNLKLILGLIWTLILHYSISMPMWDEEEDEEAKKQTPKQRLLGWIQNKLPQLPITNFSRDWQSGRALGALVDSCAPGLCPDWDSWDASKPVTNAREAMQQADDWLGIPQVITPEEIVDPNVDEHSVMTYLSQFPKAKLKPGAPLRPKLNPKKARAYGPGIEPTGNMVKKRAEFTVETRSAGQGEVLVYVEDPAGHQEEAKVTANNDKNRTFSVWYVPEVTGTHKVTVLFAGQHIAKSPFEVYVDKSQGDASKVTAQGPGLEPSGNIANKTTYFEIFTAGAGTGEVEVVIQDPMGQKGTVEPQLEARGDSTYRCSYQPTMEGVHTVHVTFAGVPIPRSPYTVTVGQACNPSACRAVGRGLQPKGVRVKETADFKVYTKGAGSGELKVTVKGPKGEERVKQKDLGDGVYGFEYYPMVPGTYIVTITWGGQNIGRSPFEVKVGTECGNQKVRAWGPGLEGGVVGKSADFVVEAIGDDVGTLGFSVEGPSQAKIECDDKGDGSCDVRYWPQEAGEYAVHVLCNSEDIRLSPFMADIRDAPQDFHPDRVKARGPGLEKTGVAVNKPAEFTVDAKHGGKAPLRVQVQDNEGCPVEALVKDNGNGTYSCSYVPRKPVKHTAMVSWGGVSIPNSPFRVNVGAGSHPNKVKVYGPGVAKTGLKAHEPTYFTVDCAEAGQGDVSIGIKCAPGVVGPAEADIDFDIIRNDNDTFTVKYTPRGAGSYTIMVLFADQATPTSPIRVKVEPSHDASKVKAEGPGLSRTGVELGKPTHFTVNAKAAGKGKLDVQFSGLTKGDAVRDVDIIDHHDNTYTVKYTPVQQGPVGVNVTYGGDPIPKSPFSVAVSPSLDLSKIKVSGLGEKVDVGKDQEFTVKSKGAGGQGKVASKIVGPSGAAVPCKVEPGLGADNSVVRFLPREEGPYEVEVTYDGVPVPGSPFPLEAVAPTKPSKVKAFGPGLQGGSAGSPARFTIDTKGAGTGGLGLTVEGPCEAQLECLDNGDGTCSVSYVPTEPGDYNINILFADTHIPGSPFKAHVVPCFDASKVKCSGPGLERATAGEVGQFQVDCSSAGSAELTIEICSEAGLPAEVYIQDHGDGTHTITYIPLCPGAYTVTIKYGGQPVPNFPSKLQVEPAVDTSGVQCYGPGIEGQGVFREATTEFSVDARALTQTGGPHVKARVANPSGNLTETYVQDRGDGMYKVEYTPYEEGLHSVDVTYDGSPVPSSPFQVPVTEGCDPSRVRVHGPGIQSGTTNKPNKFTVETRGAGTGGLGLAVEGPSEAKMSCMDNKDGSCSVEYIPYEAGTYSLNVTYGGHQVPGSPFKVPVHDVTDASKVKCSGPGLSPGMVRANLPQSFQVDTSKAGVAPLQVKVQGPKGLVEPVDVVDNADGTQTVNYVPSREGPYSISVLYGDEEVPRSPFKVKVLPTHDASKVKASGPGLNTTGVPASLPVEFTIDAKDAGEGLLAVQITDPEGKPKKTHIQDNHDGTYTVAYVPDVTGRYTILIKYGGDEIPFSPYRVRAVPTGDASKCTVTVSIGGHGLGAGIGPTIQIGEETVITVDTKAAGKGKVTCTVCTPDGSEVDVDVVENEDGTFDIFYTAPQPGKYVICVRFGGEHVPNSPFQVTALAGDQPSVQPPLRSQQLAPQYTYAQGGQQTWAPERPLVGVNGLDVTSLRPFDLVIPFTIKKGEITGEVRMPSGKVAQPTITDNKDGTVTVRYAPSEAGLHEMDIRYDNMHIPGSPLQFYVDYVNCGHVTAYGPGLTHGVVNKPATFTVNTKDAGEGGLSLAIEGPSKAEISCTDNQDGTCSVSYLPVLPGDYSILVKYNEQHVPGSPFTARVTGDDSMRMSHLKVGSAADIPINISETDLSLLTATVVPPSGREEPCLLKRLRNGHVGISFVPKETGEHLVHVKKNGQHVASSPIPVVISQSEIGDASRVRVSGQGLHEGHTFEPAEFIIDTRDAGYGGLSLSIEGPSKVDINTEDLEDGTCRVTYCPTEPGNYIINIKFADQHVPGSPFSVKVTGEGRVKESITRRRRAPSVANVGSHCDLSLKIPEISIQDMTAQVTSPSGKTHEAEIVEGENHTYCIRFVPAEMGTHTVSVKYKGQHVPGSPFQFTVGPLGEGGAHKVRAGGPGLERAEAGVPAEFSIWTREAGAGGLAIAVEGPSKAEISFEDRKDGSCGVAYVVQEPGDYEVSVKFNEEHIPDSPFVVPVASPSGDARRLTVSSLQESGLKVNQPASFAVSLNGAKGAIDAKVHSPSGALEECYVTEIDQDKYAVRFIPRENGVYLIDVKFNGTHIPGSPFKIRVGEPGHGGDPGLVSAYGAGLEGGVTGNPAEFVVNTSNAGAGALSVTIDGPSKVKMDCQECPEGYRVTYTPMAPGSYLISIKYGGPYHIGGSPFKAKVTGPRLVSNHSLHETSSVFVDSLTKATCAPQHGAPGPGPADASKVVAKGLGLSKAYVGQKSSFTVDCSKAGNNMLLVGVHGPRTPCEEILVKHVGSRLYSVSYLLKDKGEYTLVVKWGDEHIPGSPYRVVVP

[3] = molecular target: FLNA pentamer VAKGL of SEQ ID NO: 1 (Homo sapiens, UniProt P21333); experiment: [3H]NLX displacement from biotinylated VAKGL peptide; conditions: Bn-VAKGL peptide; single IC50; N=4; read-out: IC50, inhibition of [3H]NLX binding
Method: Nonspecific binding was defined by 1 mM NTX. The reaction was terminated by addition of 1 ml of ice-cold binding medium. The [^3H]NLX-bound Bn-VAKGL was trapped by incubation with […] NeutrAvidin®-agarose (Thermo), followed by centrifugation. Following two 1.5 ml washes with PBS, the bound [^3H]NLX was determined using scintillation spectrometry. […] N=4.

[4] = tested on: ERK2; experiment: Aβ42-induced ERK2 activation (pERK2) in rat frontal cortical synaptosomes; assay type: cell-based; conditions: simultaneous treatment
Method: FIG. 3 in two panels as FIG. 3A and FIG. 3B, illustrates that FLNA-binding compounds reduce Aβ-induced α7nAChR-mediated ERK2 signaling. In the same treated synaptosomes used in FIG. 2, levels of phosphorylated (activated) ERK2 were measured in immunoprecipitates of ERK2. […] Immunoprecipitates were determined by Western blotting (FIG. 3A) and quantified for four compounds by densitometry (FIG. 3B). n=3.
Phosphorylation of ERK2 indicates its activation, which leads to tau phosphorylation.

[5] = tested on: FLNA-α7nAChR association; experiment: FLNA association with α7nAChR in organotypic frontocortical slice cultures; assay type: cell-based, rat; conditions: 100 nM Aβ42, 16 hours, compound added simultaneously
Method: (§1) Tissue was harvested and solubilized, and a specific antibody against FLNA was used to immunoprecipitate FLNA and associated proteins. The FLNA immunoprecipitate was size-fractionated using SDS-PAGE, transferred and probed with specific antibodies directed against each of the following receptors: α7nAChR, TLR4, IR and MOR.
(§2) Rat brain slice organotypic culture methods were modified from those published previously. [Adamchik et al., Brain Res Brain Res Protoc 5:153-158 (2000).] FCX slices ([…]) were transferred to sterile, porous Millicell-CM inserts (0.4 μm). Each culture insert unit contained two brain slices and was placed into individual wells of a 12-well culture tray in 2 ml medium: 50% MEM with Earl's salts, 2 mM L-glutamine, 25% Earl's balanced salt solution, 6.5 g/l D-glucose, 20% fetal bovine serum (FBS), 5% horse serum, 25 mM HEPES buffer, pH 7.2, and […]. […]
(§3) The level of FLNA-associated α7nAChRs was determined using a co-immunoprecipitation/Western blotting method as described previously. […] The levels of FLNA-associated α7nAChR, TLR4, IR and MOR were assessed by Western blotting using specific antibodies directed against the respective proteins and the blot stripped and re-probed for FLNA for immunoprecipitation/loading control.

[6] = tested on: FLNA-TLR4 association; experiment: FLNA association with TLR4 in organotypic frontocortical slice cultures; assay type: cell-based, rat; conditions: 100 nM Aβ42, 16 hours, compound added simultaneously
Method: as §1, §2, §3

[7] = tested on: tau (pSer202, pThr231, pThr181); experiment: Tau phosphorylation in organotypic frontocortical slice cultures; assay type: cell-based, rat; conditions: C0105 0.1, 1, 10 nM; C0114 1, 10 nM; simultaneous with Aβ42
Method: On the day of study, medium was removed, the brain slices rinsed and incubated in 0.1% FBS-containing medium for 4 hours at 36° C. in 5% CO2.
The levels of phosphorylated tau (pSer202tau, pThr231tau and pThr181tau) as well as total tau precipitated (loading controls) are assessed by Western blotting using specific antibodies directed against each of the phosphoepitopes and the anti-tau, respectively.

[8] = tested on: α7nAChR; assay type: cell-based, rat
[9] = tested on: NMDAR; assay type: cell-based, rat; conditions: slice cultures, 0.1 μM Aβ42
[10] = tested on: NFT and Aβ42 aggregates; experiment: Immunohistochemistry of NFT and Aβ42 aggregates in slice cultures; assay type: cell-based, rat; conditions: slice cultures incubated with Aβ42
Method: For immunohistochemistry, additional slices were removed and fixed in 4% paraformaldehyde in PBS at 4° C.
One section was immunostained with anti-NFT or -PHF.
Specimens were examined using a Nikon FXA microscope with a Princeton Instruments CCD camera and recorded digitally.
The correlations between the amount of NFT/PHF immunoreactivity and Aβ42-positive material accumulated within mature neurons were also determined.

[11] = tested on: NMDAR; assay type: in vivo, mouse; conditions: 10 mg/kg twice daily
[12] = tested on: insulin receptor (IR); experiment: ICV Aβ42 infusion mouse model: IR signaling; assay type: in vivo; conditions: 10 mg/kg twice daily
Method: IR activation and signaling was initiated by incubation of tissue with either K-R (basal) or K—R containing 1 nM insulin at 37° C. for 30 minutes. […] Ligand stimulation was terminated by the addition of 1 ml of ice-cold Ca^2+-free K-R containing mixture of protein phosphatase inhibitors, 0.5 mM EGTA and 0.1 mM EDTA.
Tissues were briefly centrifuged and homogenized in 0.25 ml of ice-cold immunoprecipitation buffer. The homogenates were centrifuged at 1000×g for 5 minutes (4° C.) and the supernatant (post-mitochondrial fraction) was sonicated for 10 seconds on ice. […] The resultant lysates were then cleared by centrifugation at 50,000×g for 5 minutes and diluted with 0.75 ml of immunoprecipitation buffer. Protein concentrations were measured by Bradford method (Bio-Rad).
In these studies, brain tissue lysates (100 μg) were immunoprecipitated overnight (about 18 hours) at 4° C. with 2 μg of immobilized anti-IRβ onto covalently conjugated protein A-agarose beads (Pierce-ENDOGEN).
Anti-IRβ immunoprecipitates were incubated with 75 μl antigen elution buffer (Pierce-ENDOGEN) and 2% SDS for 2 minutes on ice, centrifuged to remove antibody-protein A-agarose complexes and neutralized immediately with 10 μl 1.5 M Tris buffer, pH 8.8 followed by addition of 65 μl 2× PAGE sample buffer and boiled for 5 minutes. […]

[13] = molecular target: T2, α7nAChR-FLNA complex (Homo sapiens, UniProt P21333); experiment: Postmortem human frontal cortex: α7nAChR-FLNA association; assay type: cell-based; conditions: AD and Aβ42-treated control tissue; 0.1 or 1 nM
T2 construct: from tissue; host or cells: postmortem frontal cortex slices / synaptosomes (AD and control subjects)
Method: Postmortem frontal cortex tissues were gradually thawed (from −80° C. to −20° C.) and were sliced using a chilled McIlwain tissue chopper (200 μm×200 μm×3 mm). […] Following two additional washes with 1 ml of ice-cold K-R, brain slices were suspended in 1 ml of K-R.
Incubation continued for 1 hour in the dark to minimize light destruction of the test agents. […] Reaction was terminated by the addition of 1.5 ml of ice-cold Ca^2+-free K-R. Tissue slices were harvested by a brief centrifugation and used as the tissue sources for various assays.

[14] = tested on: α7nAChR; assay type: cell-based, human; conditions: AD and Aβ42-treated control brain slices
[15] = tested on: voltage-gated calcium channel-mediated Ca2+ influx; assay type: cell-based, human; conditions: postmortem AD tissue; 1 nM
[16] = tested on: insulin receptor (IR); experiment: Postmortem human frontal cortex: IR activation and signaling; assay type: cell-based; conditions: AD and Aβ42-treated control brain slices; 1 nM
Method: IR activation and signaling were initiated by incubation of approximately 10 mg of in vitro treated brain slices with either KR (basal) or KR containing 1 nM insulin at 37° C. for 30 minutes. […] Ligand stimulation was terminated by the addition of 1 ml of ice-cold Ca^2+-free K-R containing 0.5 mM EGTA and 0.1 mM EDTA. Brain slices were harvested by a brief centrifugation and were homogenized in 0.25 ml of ice-cold immunoprecipitation buffer. The homogenates were centrifuged at 1000×g for 5 minutes (4° C.) and the supernatant (post-mitochondrial fraction) is sonicated for 10 seconds on ice. […] The resultant lysates are then cleared by centrifugation at 50,000×g for 5 minutes and diluted with 0.75 ml of immunoprecipitation buffer. Protein concentrations are measured by Bradford method (Bio-Rad).
The blots were stripped and re-probed with anti-IRβ to assess the loading as appropriate.

## CN1CCC2(CC1)NCC(=O)N2Cc1ccccc1 [Compound C0105]
[1]; 0.1 nM compound
  Inhibition of FITC-Aβ42 binding: 52.3±3.7%
[1]; 1 nM compound
  Inhibition of FITC-Aβ42 binding: 55.1±3.0%
[1]; 10 nM compound
  Inhibition of FITC-Aβ42 binding: 56.5±4.2%
[2]
  IC50: 0.111 nM
[3]
  IC50: 0.00276 nM
[4]
  ERK2 activation (pERK2): greatly suppressed
[5]
  Aβ42-induced increase in FLNA-α7nAChR association: reduced the Aβ42-induced increase in FLNA-α7nAChR association at 0.1, 1 and 10 nM
[6]
  Aβ42-induced increase in FLNA-TLR4 association: reduced the increase in FLNA-TLR4 at 1 and 10 nM
[7]
  Aβ42-induced tau phosphorylation: reduced tau phosphorylation at all three phosphorylation sites
[8]
  Aβ42-induced impairment in α7nAChR function (calcium influx after PNU282987): fully restoring function
[9]
  Aβ42-induced impairment in NMDAR function (calcium influx after NMDA and glycine): completely prevented by 1 and 10 nM
[10]
  Aβ42 aggregates immunostaining: dramatically reduces
  NFT immunostaining (pTau): dramatically reduces
[11]
  Aβ42-induced NMDAR dysfunction (calcium influx after NMDA and glycine): restored the Aβ42-induced NMDAR dysfunction
[12]
  IR signaling (IRβ phosphorylation, IRS-1 association): restored
[13]
  FLNA association with α7nAChR: reduces Aβ42-induced FLNA association with α7nAChR and TLR4
[14]
  Functioning of α7nAChR (calcium influx after receptor stimulation): preserves functioning
[15]
  Deficit in depolarization-induced calcium influx: attenuated the deficit
[16]
  IR signaling assemblies: Normalization of receptor function
